Measurements reported in patent publication US9113629B2, “4-amino-6-(4-substituted-phenyl)-picolinates and 6-amino-2-(4-substituted-phenyl)-pyrimidine-4-carboxylates and their use as herbicides” (DOW AGROSCIENCES LLC, priority 2013, dated 2015).
Where two headings read alike, the source gives them in different places.

Key:
[1] = system: Key Grass and Sedge Weeds as well as Grass Crops; test: Post-emergent Test II herbicidal activity (Table 6); type: in vivo; conditions: post-emergence, 336 h
Procedure, shortened: (§1)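 Greenhouse-grown plants at first or second true leaf stage were sprayed post-emergence with compound in acetone/DMSO-based aqueous spray containing crop oil concentrate and surfactant, at 187 L/ha, highest rate plus ½× to 1/16× dilutions. After 14 d, injury was scored visually versus untreated plants, 0 (none) to 100% (complete kill).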

[2] = system: Key Broadleaf Weed and Crop Species; test: Post-emergent Test II herbicidal activity (Table 5); type: in vivo; conditions: post-emergence, 336 h, 14 days after application; for pest or weed control at 70 g/ha: application rate 70 g ai/ha; for pest or weed control at 140 g/ha: application rate 140 g ai/ha
Procedure, shortened: as §1

[3] = ABUTH: velvetleaf (Abutilon theophrasti), read-out: Visual Growth Reduction (%) 14 Days After Application, ABUTH
[4] = AMARE: redroot pigweed (Amaranthus retroflexus), read-out: Visual Growth Reduction (%) 14 Days After Application, AMARE
[5] = BRSNN: oilseed-rape, canola (Brassica napus), read-out: Visual Growth Reduction (%) 14 Days After Application, BRSNN
[6] = CHEAL: lambsquarters (Chenopodium album), read-out: Visual Growth Reduction (%) 14 Days After Application, CHEAL
[7] = EPHHL: wild poinsettia (Euphorbia heterophylla), read-out: Visual Growth Reduction (%) 14 Days After Application, EPHHL
[8] = HELAN: sunflower (Helianthus annuus), read-out: Visual Growth Reduction (%) 14 Days After Application, HELAN
[9] = VIOTR: wild pansy (Viola tricolor), read-out: Visual Growth Reduction (%) 14 Days After Application, VIOTR

C#Cc1ccc(-c2nc(N)c(OC)c(C(=O)OC)n2)c(F)c1F [Compound 84]
0 to 29%: pest or weed control at 70 g/ha ([1]; CYPES: yellow nutsedge (Cyperus esculentus), 70 g ai/ha, read-out: Visual Growth Reduction (%) 14 Days After Application, CYPES) | pest or weed control at 140 g/ha ([1]; CYPES: yellow nutsedge (Cyperus esculentus), 140 g ai/ha, read-out: Visual Growth Reduction (%) 14 Days After Application, CYPES) | pest or weed control at 70 g/ha ([1]; DIGSA: crabgrass (Digitaria sanguinalis), 70 g ai/ha, read-out: Visual Growth Reduction (%) 14 Days After Application, DIGSA) | pest or weed control at 140 g/ha ([1]; DIGSA: crabgrass (Digitaria sanguinalis), 140 g ai/ha, read-out: Visual Growth Reduction (%) 14 Days After Application, DIGSA) | pest or weed control at 70 g/ha ([1]; ECHCG: barnyardgrass (Echinochloa crus-galli), 70 g ai/ha, read-out: Visual Growth Reduction (%) 14 Days After Application, ECHCG) | pest or weed control at 140 g/ha ([1]; ECHCG: barnyardgrass (Echinochloa crus-galli), 140 g ai/ha, read-out: Visual Growth Reduction (%) 14 Days After Application, ECHCG) | pest or weed control at 70 g/ha ([1]; ORYSA: rice (Oryza sativa), crop, 70 g ai/ha, read-out: Visual Growth Reduction (%) 14 Days After Application, ORYSA) | pest or weed control at 140 g/ha ([1]; ORYSA: rice (Oryza sativa), crop, 140 g ai/ha, read-out: Visual Growth Reduction (%) 14 Days After Application, ORYSA) | pest or weed control at 70 g/ha ([1]; SETFA: giant foxtail (Setaria faberi), 70 g ai/ha, read-out: Visual Growth Reduction (%) 14 Days After Application, SETFA) | pest or weed control at 140 g/ha ([1]; SETFA: giant foxtail (Setaria faberi), 140 g ai/ha, read-out: Visual Growth Reduction (%) 14 Days After Application, SETFA) | pest or weed control at 70 g/ha ([1]; SORVU: grain sorghum (Sorghum vulgare), 70 g ai/ha, read-out: Visual Growth Reduction (%) 14 Days After Application, SORVU) | pest or weed control at 140 g/ha ([1]; SORVU: grain sorghum (Sorghum vulgare), 140 g ai/ha, read-out: Visual Growth Reduction (%) 14 Days After Application, SORVU) | pest or weed control at 70 g/ha ([1]; TRZSS (wheat, Triticum aestivum), crop, 70 g ai/ha, read-out: Visual Growth Reduction (%) 14 Days After Application, TRZSS) | pest or weed control at 140 g/ha ([1]; TRZSS (wheat, Triticum aestivum), crop, 140 g ai/ha, read-out: Visual Growth Reduction (%) 14 Days After Application, TRZSS) | pest or weed control at 70 g/ha ([1]; ZEAMX: maize, corn (Zea mays), crop, 70 g ai/ha, read-out: Visual Growth Reduction (%) 14 Days After Application, ZEAMX) | pest or weed control at 140 g/ha ([1]; ZEAMX: maize, corn (Zea mays), crop, 140 g ai/ha, read-out: Visual Growth Reduction (%) 14 Days After Application, ZEAMX) | pest or weed control at 70 g/ha [2, 3] | pest or weed control at 140 g/ha [2, 3] | pest or weed control at 70 g/ha [2, 4] | pest or weed control at 140 g/ha [2, 4] | pest or weed control at 70 g/ha [2, 5] | pest or weed control at 140 g/ha [2, 5] | pest or weed control at 70 g/ha [2, 6] | pest or weed control at 140 g/ha [2, 6] | pest or weed control at 70 g/ha [2, 7] | pest or weed control at 140 g/ha [2, 7] | pest or weed control at 70 g/ha [2, 9] | pest or weed control at 140 g/ha [2, 9]
60 to 74%: pest or weed control at 140 g/ha [2, 8]
214 to 217 °C: melting point

Nc1cc(-c2ccc(I)c(F)c2F)nc(C(=O)O)c1Cl [Compound 38]
75 to 84%: pest or weed control at 70 g/ha ([1]; DIGSA: crabgrass (Digitaria sanguinalis), application rate 70 g ai/ha, read-out: Visual Growth Reduction (%) 14 Days After Application, DIGSA) | pest or weed control at 140 g/ha ([1]; DIGSA: crabgrass (Digitaria sanguinalis), application rate 140 g ai/ha, read-out: Visual Growth Reduction (%) 14 Days After Application, DIGSA) | pest or weed control at 70 g/ha [2, 8]
85 to 94%: pest or weed control at 70 g/ha ([1]; SORVU: grain sorghum (Sorghum vulgare), application rate 70 g ai/ha, read-out: Visual Growth Reduction (%) 14 Days After Application, SORVU) | pest or weed control at 140 g/ha ([1]; SORVU: grain sorghum (Sorghum vulgare), application rate 140 g ai/ha, read-out: Visual Growth Reduction (%) 14 Days After Application, SORVU) | pest or weed control at 70 g/ha ([1]; ZEAMX: maize, corn (Zea mays), application rate 70 g ai/ha, read-out: Visual Growth Reduction (%) 14 Days After Application, ZEAMX) | pest or weed control at 70 g/ha [2, 4] | pest or weed control at 70 g/ha [2, 6] | pest or weed control at 140 g/ha [2, 8]
288 to 293 °C (dec.): melting point
60 to 74%: pest or weed control at 70 g/ha ([1]; Triticum aestivum, TRZSS (wheat), application rate 70 g ai/ha, read-out: Visual Growth Reduction (%) 14 Days After Application, TRZSS) | pest or weed control at 140 g/ha ([1]; Triticum aestivum, TRZSS (wheat), application rate 140 g ai/ha, read-out: Visual Growth Reduction (%) 14 Days After Application, TRZSS)
95 to 100%: pest or weed control at 70 g/ha ([1]; CYPES: yellow nutsedge (Cyperus esculentus), application rate 70 g ai/ha, read-out: Visual Growth Reduction (%) 14 Days After Application, CYPES) | pest or weed control at 140 g/ha ([1]; CYPES: yellow nutsedge (Cyperus esculentus), application rate 140 g ai/ha, read-out: Visual Growth Reduction (%) 14 Days After Application, CYPES) | pest or weed control at 70 g/ha ([1]; ECHCG: barnyardgrass (Echinochloa crus-galli), application rate 70 g ai/ha, read-out: Visual Growth Reduction (%) 14 Days After Application, ECHCG) | pest or weed control at 140 g/ha ([1]; ECHCG: barnyardgrass (Echinochloa crus-galli), application rate 140 g ai/ha, read-out: Visual Growth Reduction (%) 14 Days After Application, ECHCG) | pest or weed control at 70 g/ha ([1]; SETFA: giant foxtail (Setaria faberi), application rate 70 g ai/ha, read-out: Visual Growth Reduction (%) 14 Days After Application, SETFA) | pest or weed control at 140 g/ha ([1]; SETFA: giant foxtail (Setaria faberi), application rate 140 g ai/ha, read-out: Visual Growth Reduction (%) 14 Days After Application, SETFA) | pest or weed control at 140 g/ha ([1]; ZEAMX: maize, corn (Zea mays), application rate 140 g ai/ha, read-out: Visual Growth Reduction (%) 14 Days After Application, ZEAMX) | pest or weed control at 70 g/ha [2, 3] | pest or weed control at 140 g/ha [2, 3] | pest or weed control at 140 g/ha [2, 4] | pest or weed control at 70 g/ha [2, 5] | pest or weed control at 140 g/ha [2, 5] | pest or weed control at 140 g/ha [2, 6] | pest or weed control at 70 g/ha [2, 7] | pest or weed control at 140 g/ha [2, 7] | pest or weed control at 70 g/ha [2, 9] | pest or weed control at 140 g/ha [2, 9]
0 to 29%: pest or weed control at 70 g/ha ([1]; ORYSA: rice (Oryza sativa), application rate 70 g ai/ha, read-out: Visual Growth Reduction (%) 14 Days After Application, ORYSA) | pest or weed control at 140 g/ha ([1]; ORYSA: rice (Oryza sativa), application rate 140 g ai/ha, read-out: Visual Growth Reduction (%) 14 Days After Application, ORYSA)
